Organism: Rattus norvegicus
Experiment: DrugMatrix - Regimen: Daily Repeat
Type: toxicity, organism-based, Sprague-Dawley
Parameters: regimen Daily Repeat, gender Male, age 6-8 weeks
Settings: in vivo, po, […], route oral GAVAGE; for ABSOLUTE BASOPHIL / ABSOLUTE EOSINOPHIL / ABSOLUTE LYMPHOCYTE / ABSOLUTE MONOCYTE / ABSOLUTE SEGMENTED NEUTROPHIL / BASOPHIL / EOSINOPHIL / ERYTHROCYTE COUNT / HEMATOCRIT / HEMOGLOBIN / LEUKOCYTE COUNT / LYMPHOCYTE / MEAN CORPUSCULAR HEMOGLOBIN / MEAN CORPUSCULAR HEMOGLOBIN CONCENTRATION / MEAN CORPUSCULAR VOLUME / MONOCYTE / NEUTROPHIL / NUCLEATED RED BLOOD CELLS / PLATELET COUNT: tissue Blood; for ALANINE AMINOTRANSFERASE / ALBUMIN / ALKALINE PHOSPHATASE / ASPARTATE AMINOTRANSFERASE / BLOOD UREA NITROGEN / CARBON DIOXIDE / CHLORIDE / CHOLESTEROL / CREATINE PHOSPHOKINASE / CREATININE / GLUCOSE / LACTATE DEHYDROGENASE / LIPASE / PHOSPHORUS / POTASSIUM / SODIUM / TOTAL BILIRUBIN / TOTAL PROTEIN / URIC ACID: tissue Plasma
[1] = 30 mg/kg, dose level Low, time 7 day
[2] = 60 mg/kg, 72 h, dose level High, time 3 day
[3] = 60 mg/kg, dose level High, time 7 day

S=C=Nc1cccc2ccccc12 [1-NAPHTHYLISOTHIOCYANATE]
ABSOLUTE BASOPHIL [1]: 0 CELLS/uL
ABSOLUTE EOSINOPHIL [1]: 0 CELLS/uL
ABSOLUTE LYMPHOCYTE [1]: 18648 CELLS/uL
ABSOLUTE MONOCYTE [1]: 658.33 CELLS/uL
ABSOLUTE SEGMENTED NEUTROPHIL [1]: 6027 CELLS/uL
BASOPHIL [1]: 0%
EOSINOPHIL [1]: 0%
ERYTHROCYTE COUNT [1]: 5.54 x10E6/uL
HEMATOCRIT [1]: 31.6%
HEMOGLOBIN [1]: 13.02 G/DL
LEUKOCYTE COUNT [1]: 25.33 x10E3/uL
LYMPHOCYTE [1]: 74.17%
MEAN CORPUSCULAR HEMOGLOBIN [1]: 23.55 pg
MEAN CORPUSCULAR HEMOGLOBIN CONCENTRATION [1]: 41.2 G/DL
MEAN CORPUSCULAR VOLUME [1]: 57.07 fL
MONOCYTE [1]: 2.33%
NEUTROPHIL [1]: 23.5%
NUCLEATED RED BLOOD CELLS [1]: 0 /100WBC
PLATELET COUNT [1]: 1468.17 x10E3/uL
ALANINE AMINOTRANSFERASE [1]: 195.83 u/L
ALBUMIN [1]: 3.78 G/DL
ALKALINE PHOSPHATASE [1]: 515.67 u/L
ASPARTATE AMINOTRANSFERASE [1]: 302 u/L
BLOOD UREA NITROGEN [1]: 11.83 mg/dL
CARBON DIOXIDE [1]: 27.67 mmol/L
CHLORIDE [1]: 96.67 MEQ/L
CHOLESTEROL [1]: 137 mg/dL
CREATINE PHOSPHOKINASE [1]: 291.83 u/L
CREATININE [1]: 0.18 mg/dL
GLUCOSE [1]: 98.33 mg/dL
LACTATE DEHYDROGENASE [1]: 164.67 u/L
LIPASE [1]: 11 u/L
PHOSPHORUS [1]: 8.68 mg/dL
POTASSIUM [1]: 6.99 MEQ/L
SODIUM [1]: 139.38 MEQ/L
TOTAL BILIRUBIN [1]: 3.15 mg/dL
TOTAL PROTEIN [1]: 6.52 G/DL
URIC ACID [1]: 0.93 mg/dL
ABSOLUTE BASOPHIL [2]: 0 CELLS/uL
ABSOLUTE EOSINOPHIL [2]: 24.67 CELLS/uL
ABSOLUTE LYMPHOCYTE [2]: 8862.67 CELLS/uL
ABSOLUTE MONOCYTE [2]: 317.33 CELLS/uL
ABSOLUTE SEGMENTED NEUTROPHIL [2]: 2312 CELLS/uL
BASOPHIL [2]: 0%
EOSINOPHIL [2]: 0.33%
ERYTHROCYTE COUNT [2]: 6.41 x10E6/uL
HEMATOCRIT [2]: 39.08%
HEMOGLOBIN [2]: 14.75 G/DL
LEUKOCYTE COUNT [2]: 11.52 x10E3/uL
LYMPHOCYTE [2]: 77%
MEAN CORPUSCULAR HEMOGLOBIN [2]: 23 pg
MEAN CORPUSCULAR HEMOGLOBIN CONCENTRATION [2]: 37.77 G/DL
MEAN CORPUSCULAR VOLUME [2]: 60.88 fL
MONOCYTE [2]: 2.5%
NEUTROPHIL [2]: 20.17%
NUCLEATED RED BLOOD CELLS [2]: 0.17 /100WBC
PLATELET COUNT [2]: 1204.67 x10E3/uL
ALANINE AMINOTRANSFERASE [2]: 183.5 u/L
ALBUMIN [2]: 3.77 G/DL
ALKALINE PHOSPHATASE [2]: 566.83 u/L
ASPARTATE AMINOTRANSFERASE [2]: 458.5 u/L
BLOOD UREA NITROGEN [2]: 11.67 mg/dL
CARBON DIOXIDE [2]: 28.67 mmol/L
CHLORIDE [2]: 94.67 MEQ/L
CHOLESTEROL [2]: 312 mg/dL
CREATINE PHOSPHOKINASE [2]: 420.5 u/L
CREATININE [2]: 0.28 mg/dL
GLUCOSE [2]: 125.17 mg/dL
LACTATE DEHYDROGENASE [2]: 229.33 u/L
LIPASE [2]: 12.5 u/L
PHOSPHORUS [2]: 8.75 mg/dL
POTASSIUM [2]: 6.43 MEQ/L
SODIUM [2]: 140.67 MEQ/L
TOTAL BILIRUBIN [2]: 3.47 mg/dL
TOTAL PROTEIN [2]: 6.93 G/DL
URIC ACID [2]: 0.85 mg/dL
ABSOLUTE BASOPHIL [3]: 0 CELLS/uL
ABSOLUTE EOSINOPHIL [3]: 0 CELLS/uL
ABSOLUTE LYMPHOCYTE [3]: 17693.83 CELLS/uL
ABSOLUTE MONOCYTE [3]: 897.83 CELLS/uL
ABSOLUTE SEGMENTED NEUTROPHIL [3]: 12275 CELLS/uL
BASOPHIL [3]: 0%
EOSINOPHIL [3]: 0%
ERYTHROCYTE COUNT [3]: 5.43 x10E6/uL
HEMATOCRIT [3]: 31.22%
HEMOGLOBIN [3]: 12.83 G/DL
LEUKOCYTE COUNT [3]: 30.87 x10E3/uL
LYMPHOCYTE [3]: 60.83%
MEAN CORPUSCULAR HEMOGLOBIN [3]: 23.63 pg
MEAN CORPUSCULAR HEMOGLOBIN CONCENTRATION [3]: 41.02 G/DL
MEAN CORPUSCULAR VOLUME [3]: 57.68 fL
MONOCYTE [3]: 2.67%
NEUTROPHIL [3]: 36.5%
NUCLEATED RED BLOOD CELLS [3]: 0 /100WBC
PLATELET COUNT [3]: 1574.83 x10E3/uL
ALANINE AMINOTRANSFERASE [3]: 179.83 u/L
ALBUMIN [3]: 3.78 G/DL
ALKALINE PHOSPHATASE [3]: 516 u/L
ASPARTATE AMINOTRANSFERASE [3]: 418 u/L
BLOOD UREA NITROGEN [3]: 12.33 mg/dL
CARBON DIOXIDE [3]: 26.67 mmol/L
CHLORIDE [3]: 94 MEQ/L
CHOLESTEROL [3]: 384.5 mg/dL
CREATINE PHOSPHOKINASE [3]: 339.67 u/L
CREATININE [3]: 0.1 mg/dL
GLUCOSE [3]: 96.33 mg/dL
LACTATE DEHYDROGENASE [3]: 286.67 u/L
LIPASE [3]: 12.17 u/L
PHOSPHORUS [3]: 8.75 mg/dL
POTASSIUM [3]: 6.62 MEQ/L
SODIUM [3]: 137.88 MEQ/L
TOTAL BILIRUBIN [3]: 8.2 mg/dL
TOTAL PROTEIN [3]: 6.48 G/DL
URIC ACID [3]: 0.87 mg/dL
